Reference: US20100113430A1, “THIOXANTHENE DERIVATES USEFUL TO TREAT INFECTIOUS DISEASES” (BKG PHARMA APS, priority 2007, published 2010)
In brackets after ≈: the same amount, converted by molar mass.

Key:
Type in all cases: cell-based
Gram negative sp. = test: MIC/IC90 broad spectrum, Gram negative sp.; conditions: 25 strains, 20 resistant
Procedure: (§1) Cell growth was tested using the Minimal Inhibitory Concentration (MIC) susceptibility tests by use of the microdilution broth method in accordance to the NCCLS Guidelines (NCCLS Guidelines, Methods for Dilution Antimicrobial Susceptibility Tests for Bacteria That Grow Aerobically; Approved Standard, Sixth Edition, Volume 23; Number 2). The minimum inhibitory concentration (MIC), is defined ad the lowest concentration of drug which inhibits growth of the test organism, in the sense that no visible growth is detected (total inhibition of growth). In example 2 MIC of the compounds used on fungal microorganisms was determined from the IC90 measurements according to NCCLS Guidelines.
(§2) A log phase culture of bacteria was diluted with fresh pre-warmed Mueller-Hinton medium and adjusted to a defined OD at 600 nm in order to give a final concentration of 1×10^4-5 bacteria/ml medium. The bacterial culture was transferred to microtiter-plates and culture was added to each well. Drug was added to the bacterial culture in the wells as two-fold dilution series of drug in order to give final concentrations ranging from 0.03 to 128 μg/ml. Trays were incubated at 37° C. by shaking in a robot analyzer, PowerWavex, software KC^4′ Kebo.Lab, Copenhagen, for 16 h and optical densities were measured at 600 nm during the incubation time in order to record growth curves. Wells containing bacterial culture without drug were used as controls to ensure correct inoculum size and bacterial growth during the incubation. Cultures were tested in order to detect contaminations. Each experiment was repeated in triplicate. MIC values represent the mean values of two separate triplicate experiments. Intra- and interassay variation was <5%.
(§3) Inhibition 90 (IC90) is defined as: OD responding a 90% growth inhibition.
A broad spectrum of bacteria were cultured and assayed as described above for susceptibility towards N-dealkyl-clopenthixol.

[1] = system: resistant and susceptible clinical bacterial isolates; test: Susceptibility of resistant versus susceptible bacterial isolates (Example 3); conditions: isolates of Tables 3a and 3b
Procedure: as §1
as §2, with “Wells containing bacterial culture without drug were used as controls to ensure correct inoculum size and bacterial growth during the incubation. Cultures were tested in order to detect contaminations. Each experiment was repeated in triplicate. MIC values represent the mean values of two separate triplicate experiments. Intra- and interassay variation was <5%.” left out

HIV-1 strain HTLV-IIIB = test: Inhibition of HIV-1 replication in MT4 cells (MTT assay); conditions: HIV-1 IIIB 0.005 MOI, six days
Procedure: The antiviral effect of N-dealkyl-trans-flupenthixol and N-dealkyl-trans-clopenthixol was studied by checkerboard studies exposing HIV infected cells to 0-3 μM of trans-clopenthixol. Each experiment was repeated in triple duplicate. MIC values represent the mean values of two separate experiments.
The HIV-1 strain HTLV-IIIB were propagated in H9 cells at 37° C., 5% CO2 using RPMI 1640 with 10% heat-inactivated foetal calf serum (FCS) and antibiotics (growth medium). Culture supernatant was filtered ([…]), aliquoted, and stored at −80° C. until use. The HIV-1 strain was obtained from NIH AIDS Research and Reference Program.
Compounds were examined for possible antiviral activity against strain IIIB of HIV-1 using MT4 cells as target cells. MT4 cells were incubated with virus (0.005 MOI) and growth medium containing the test dilutions of compound(s) for six days in parallel with virus-infected and uninfected control cultures without compound added. Expression of HIV in the cultures was indirectly quantified using the MTT assay as previously described. Compounds mediating less than 30% reduction of HIV expression were considered without biological activity. […] The 50% inhibitory concentration was determined by interpolation from the plots of percent inhibition versus concentration of compound. […]

[2] = system: clinically relevant resistant bacterial isolate S. Aureus; test: Growth inhibition by cis/trans combinations, resistant isolate S. Aureus; conditions: Trans-compound 0.5 μg/ml, Cis-compound 0 μg/ml
Procedure: as §1
as §2, with “Wells containing bacterial culture without drug were used as controls to ensure correct inoculum size and bacterial growth during the incubation. Cultures were tested in order to detect contaminations. Each experiment was repeated in triplicate. MIC values represent the mean values of two separate triplicate experiments. Intra- and interassay variation was <5%.” left out

[3] = system: Enterococcus faecalis resistant clinical isolates; test: MIC/IC90, resistant clinical isolates of Enterococcus faecalis
Procedure: as §1, §2, §3
Clinically relevant isolates were cultured and assayed as described above.

[4] = system: Candida glabrata clinical isolates; test: MIC (90% growth inhibition), broth microdilution NCCLS M27-A, Candida glabrata
Procedure: as §1, with “Guidelines. […]” for “Guidelines.”
4 clinical isolates of Candida sp. (including 3 fluconazole resistant isolates) were subcultured for 24 h on Sabouraud glucose agar before susceptibility testing. Broth microdilution tests were performed according to NCCLS document M27-A (Ref: National Committee for Clinical Laboratory Standards. (1997). Reference Method for Broth Dilution Antifungal Susceptibility Testing of Yeasts: Approved Standard M27-A. NCCLS, Wayne, Pa.). Microtitre plates were read spectrophotometrically at 530 nm, after mixing the wells by pipetting to resuspend yeast sediments. In this experiment, the MIC was defined as the lowest drug dilution resulting in 90% growth inhibition.

[5] = Enterococcus faecalis 10, BLR, CR

For `Clc1ccc2c(c1)/C(=C/CCN1CCNCC1)c1ccccc1S2` [N-dealkyl-trans-clopenthixol, trans-1-(3-(2-chloro-thioxanthen-9-ylidene)propyl)piperazine], the “MIC (mean)” value (Gram negative sp.) was 2 µg/mL (≈ 5.6 µM), the MIC range (Gram negative sp.) was 0.5 to 2 µg/mL and the “difference in susceptibility between resistant and susceptible isolates” value [1] was “No difference in susceptibility”. It also gave an EC50 (HIV-1 strain HTLV-IIIB) of 2000 nM, a Growth inhibition [2] of 100% and an IC90 ([3]; Enterococcus faecalis 1, VanA) of 0.6 µg/mL (≈ 1.68 µM). It also gave an MIC ([3]; Enterococcus faecalis 1, VanA) of 1 µg/mL (≈ 2.8 µM), an IC90 ([3]; Enterococcus faecalis 2, VanA) of 0.6 µg/mL (≈ 1.68 µM) and an MIC ([3]; Enterococcus faecalis 2, VanA) of 1 µg/mL (≈ 2.8 µM). For the same molecule, the MIC ([3]; Enterococcus faecalis 3, VanA) was 1 µg/mL (≈ 2.8 µM), the IC90 ([3]; Enterococcus faecalis 4, VanB) was 0.6 µg/mL (≈ 1.68 µM) and the MIC ([3]; Enterococcus faecalis 4, VanB) was 1 µg/mL (≈ 2.8 µM). The IC90 ([3]; Enterococcus faecalis 5, Van B) was 1 µg/mL (≈ 2.8 µM), the MIC ([3]; Enterococcus faecalis 5, Van B) was 2 µg/mL (≈ 5.6 µM) and the IC90 ([3]; Enterococcus faecalis 6, VanB) was 0.6 µg/mL (≈ 1.68 µM). It also gave an MIC ([3]; Enterococcus faecalis 6, VanB) of 1 µg/mL (≈ 2.8 µM), an IC90 ([3]; Enterococcus faecalis 7, VanA) of 0.6 µg/mL (≈ 1.68 µM) and an MIC ([3]; Enterococcus faecalis 7, VanA) of 1 µg/mL (≈ 2.8 µM). It also gave an IC90 ([3]; Enterococcus faecalis 8, HLAR) of 0.6 µg/mL (≈ 1.68 µM), an MIC ([3]; Enterococcus faecalis 8, HLAR) of 1 µg/mL (≈ 2.8 µM) and an IC90 ([3]; Enterococcus faecalis 9, HLAR) of 0.6 µg/mL (≈ 1.68 µM). For the same molecule, the MIC ([3]; Enterococcus faecalis 9, HLAR) was 1 µg/mL (≈ 2.8 µM), the IC90 [3, 5] was 0.6 µg/mL (≈ 1.68 µM) and the MIC [3, 5] was 1 µg/mL (≈ 2.8 µM). The MIC ([4]; strain 2. Candida glabrata FR (fluconazole resistant)) was 1 µg/mL (≈ 2.8 µM), the MIC ([4]; strain 4. Candida glabrata FR (fluconazole resistant)) was 0.5 µg/mL (≈ 1.4 µM) and the MIC ([4]; strain 5. Candida glabrata) was 0.5 µg/mL (≈ 1.4 µM).
